Here are results for 3 compounds from PMC3745399, “An NO Donor Approach to Neuroprotective and Procognitive Estrogen Therapy Overcomes Loss of NO Synthase Function and Potentially Thrombotic Risk” (PLoS ONE, 2013).

The term EC50 denotes the midpoint of the concentration-response curve.

Assay [1] relates to hippocampal slices from 16-month old male 3×Tg mice. Nature of the assay: LTP in CA1 of hippocampal slices after theta burst stimulation. The arrangement: species or system mouse. To be noted: hippocampal slices from C57Bl/6 mice; 100 nM; absence of DMA. The procedure:
LTP in the CA1 field of the hippocampus is a well-studied cellular model for learning and memory. […] At 16 months, an advanced age at which Alzheimer's-like neuropathology is well developed in these animals, studies on LTP have not previously been reported. Nevertheless, we observed a robust, reproducible deficit in LTP in these aged transgenic mice, with field excitatory post-synaptic potentials (fEPSP) showing an end fEPSP of 97.0±6.4% of baseline at 45 min post-TBS, compared to 134.7±10.3% observed in the wild type (WT) transgenic background controls (Fig. 3A,B).
Figure 3 Reversal of LTP deficit in aged 3×Tg mice by SERMs is GPR30 dependent. LTP was measured after TBS in the CA1 region of hippocampal sections from 16 month male 3×Tg mice or WT controls. Test compounds (SERMs 100 nM; G15 100 nM) were added 30 min prior to TBS. […] (C) Secondary analysis of theta bursts indicate action both during induction and stabilization of LTP, through a GPR30 dependent mechanism.
All experiments used 16-month old male 3×Tg transgenic or age-matched WT background controls. For electrophysiology, mice were rapidly decapitated, and brains were removed into an ice-cold aCSF solution (in mM: NaCl 124, KCl 3.0, KH2PO4 1.25, NaHCO3 25.7, D-glucose 10, L-ascorbate 2.0, MgSO4 2.5, and CaCl2 3.3) and sectioned on a tissue chopper into 400 µm sections. Slices were transported to a 37°C solution of aCSF, continuously bubbled with 95% O2/5% CO2, and allowed to recover at least 60 min before experimentation. After placement of a stimulation electrode in the Schaffer commissural fibers and recording electrodes with 2 M NaCl solution into the stratum radiatum of the CA1 area, stimulus intensity was set to evoke submaximal fEPSP and continuously monitored at 20 s intervals for at least 15 min to establish a stable baseline. SERMs (100 nM) and G15 (100 nM) were prepared fresh in perfusate and started at least 30 min before LTP induction to reach a new baseline after enhancement of basal synaptic transmission was observed. […] Resulting fEPSP was monitored at 20 s intervals for ∼60 min post TBS.

The test system of another assay is isolated rings of aortae. The assay can be described thus: Aortic ring relaxation. More on the design: species or system rat. The conditions noted are these: for EC50: Rattus norvegicus, intact aortic rings contracted with phenylepinephrine, mean, S.D., read-out: EC50 for relaxation. The procedure:
Isolated rings of aortae from male Sprague-Dawley rats (250–300 g) were prepared for isometric tension measurements and were equilibrated for 1 h at an optimal resting tension of 10 mN. Tissues were contracted submaximally with 0.3 µM phenylepinephrine, and after 10–15 m cumulative concentration-response curves for SERMs (0.01–30 µM) were obtained. Some aortic ring preparations were denuded of the endothelium, or were treated with 100 µM L-NAME, prior to assessment of SERM-induced relaxation responses.

As for `Brc1cc2c(cc1[C@@H]1Nc3ccccc3[C@@H]3C=CC[C@@H]31)OCO2` [G15], the “effect on LTP, compound alone” value in assay [1] is “without effect”. On to `COc1ccc(-c2sc3cc(O)ccc3c2Oc2ccc(OCCN3CCCCC3)cc2)cc1` [arzoxifene, Arzoxifene], for which, in the assay with isolated rings of aortae, the EC50 came to 3.3 ± 2.5 µM. For the same compound, the “maximal relaxation response, comparison” value in the assay with isolated rings of aortae (intact aortic rings) is “significantly less than those for DMA and raloxifene”. In the case of `O=C(c1ccc(OCCN2CCCCC2)cc1)c1c(-c2ccc(O)cc2)sc2cc(O)ccc12` [raloxifene, Raloxifene], in the assay with isolated rings of aortae, the EC50 came out at 4 ± 2.9 µM. In addition, the “efficacy (maximal relaxation)” value in the assay with isolated rings of aortae (intact aortic rings) is given as approximately 100 % relaxation.
